Source: paper PMC12736120, “First-in-Human Phase I Clinical Trial of SLC-391, a Novel and Selective AXL Inhibitor, in Patients with Advanced Solid Tumours” (Pharmaceuticals, 2025)

Assay: Phase I safety and tolerability (DLTs, adverse events, laboratory, ECG)
Assay type: in vivo
Procedure: This study employed a standard 3 + 3 dose escalation design with a starting dose of 25 mg QD. […] Dose escalation decisions took into account all available data from evaluable subjects as well as PK and the safety profile of prior dose cohorts. […] There was a minimum 5-day stagger between dosing of the first and second subjects in each dose cohort. Dose escalation decisions were made by a data review committee (DRC) composed of, at minimum, the medical monitor, at least one principal investigator, and a sponsor representative, per the study DRC Plan. Dose escalation could continue until 2 or more subjects in the same dose cohort experienced a dose-limiting toxicity (DLT). DLTs were defined as Grade 3 or 4 adverse drug reactions (ADRs), with grades as defined in the National Cancer Institute Common Toxicity Criteria for Adverse Events (NCI-CTCAE) version 5.0. […] The MTD was defined as the highest dose at which no more than 1 of 6 subjects experienced a DLT during cycle 1 of the study drug. The MTD would have been exceeded if 2 or more subjects in a dose cohort of up to 6 subjects experienced a DLT. Subjects could continue treatment until disease progression, unacceptable toxicity, death, withdrawal of consent, or loss to follow-up.
Before enrolment in the study, all patients received a detailed medical history and physical examination. Clinical laboratory evaluations included clinical chemistry, complete blood count, urinalysis, coagulation factors, and a lipid panel. Other safety assessments included vital signs, physical examination, electrocardiogram, and echocardiogram with multigated acquisition (ECHO/MUGA). Safety assessments were performed on days 1, 8, 15, and 21 of cycle 1, and on day 1 of cycles 2 to 6.

[1] = Grade 1, Overall Study (N = 35)
[2] = Grade 2, Overall Study (N = 35)

Nc1ncc(-c2cnn(C3CCNCC3)c2)cc1-c1nnc(CC2CC2)o1 [SLC-391, 3-(5-[cyclopropylmethyl]-1,3,4-oxadiazol-2-yl)-5-(1-[piperidin-4-yl]-1H-pyrazol-4-yl)-pyridin-2-amine]
TEAE: Abdominal distension [1]: 4 (11.4) n (%)
TEAE: Abdominal pain [1]: 4 (11.4) n (%)
TEAE: Back pain [1]: 1 (2.9) n (%)
TEAE: Blood and lymphatic system disorders [1]: 1 (2.9) n (%)
TEAE: Chills [1]: 6 (17.1) n (%)
TEAE: Constipation [1]: 10 (28.6) n (%)
TEAE: Cough [1]: 6 (17.1) n (%)
TEAE: Decreased appetite [1]: 7 (20.0) n (%)
TEAE: Diarrhoea [1]: 14 (40.0) n (%)
TEAE: Dizziness [1]: 4 (11.4) n (%)
TEAE: Dysgeusia [1]: 1 (2.9) n (%)
TEAE: Dyspnoea [1]: 2 (5.7) n (%)
TEAE: Fatigue [1]: 10 (28.6) n (%)
TEAE: Gastrointestinal disorders [1]: 15 (42.9) n (%)
TEAE: General disorders and administration site conditions [1]: 12 (34.3) n (%)
TEAE: Haematuria [1]: 4 (11.4) n (%)
TEAE: Headache [1]: 5 (14.3) n (%)
TEAE: Infections and infestations [1]: 1 (2.9) n (%)
TEAE: Investigations [1]: 7 (20.0) n (%)
TEAE: Metabolism and nutrition disorders [1]: 5 (14.3) n (%)
TEAE: Musculoskeletal and connective tissue disorders [1]: 7 (20.0) n (%)
TEAE: Nausea [1]: 15 (42.9) n (%)
TEAE: Nervous system disorders [1]: 11 (31.4) n (%)
TEAE: Oedema peripheral [1]: 3 (8.6) n (%)
TEAE: Psychiatric disorders [1]: 3 (8.6) n (%)
TEAE: Pyrexia [1]: 4 (11.4) n (%)
TEAE: Renal and urinary disorders [1]: 3 (8.6) n (%)
TEAE: Respiratory, thoracic, and mediastinal disorders [1]: 5 (14.3) n (%)
TEAE: Skin and subcutaneous tissue disorders [1]: 6 (17.1) n (%)
TEAE: Vomiting [1]: 13 (37.1) n (%)
TEAE: Weight decreased [1]: 6 (17.1) n (%)
Any treatment-emergent adverse event (TEAE) (Grade 2, Overall BID (N = 15)): 7 (46.7) n (%)
TEAE: Abdominal distension (Grade 2, Overall BID (N = 15)): 1 (6.7) n (%)
TEAE: Abdominal pain (Grade 2, Overall BID (N = 15)): 0 n (%)
TEAE: Back pain (Grade 2, Overall BID (N = 15)): 2 (13.3) n (%)
TEAE: Blood and lymphatic system disorders (Grade 2, Overall BID (N = 15)): 0 n (%)
TEAE: Constipation (Grade 2, Overall BID (N = 15)): 2 (13.3) n (%)
TEAE: Cough (Grade 2, Overall BID (N = 15)): 1 (6.7) n (%)
TEAE: Decreased appetite (Grade 2, Overall BID (N = 15)): 4 (26.7) n (%)
TEAE: Diarrhoea (Grade 2, Overall BID (N = 15)): 2 (13.3) n (%)
TEAE: Dysgeusia (Grade 2, Overall BID (N = 15)): 2 (13.3) n (%)
TEAE: Dyspnoea (Grade 2, Overall BID (N = 15)): 5 (33.3) n (%)
TEAE: Fatigue (Grade 2, Overall BID (N = 15)): 5 (33.3) n (%)
TEAE: Gastrointestinal disorders (Grade 2, Overall BID (N = 15)): 5 (33.3) n (%)
TEAE: General disorders and administration site conditions (Grade 2, Overall BID (N = 15)): 6 (40.0) n (%)
TEAE: Haematuria (Grade 2, Overall BID (N = 15)): 1 (6.7) n (%)
TEAE: Infections and infestations (Grade 2, Overall BID (N = 15)): 5 (33.3) n (%)
TEAE: Investigations (Grade 2, Overall BID (N = 15)): 1 (6.7) n (%)
TEAE: Metabolism and nutrition disorders (Grade 2, Overall BID (N = 15)): 5 (33.3) n (%)
TEAE: Musculoskeletal and connective tissue disorders (Grade 2, Overall BID (N = 15)): 3 (20.0) n (%)
TEAE: Nausea (Grade 2, Overall BID (N = 15)): 4 (26.7) n (%)
TEAE: Nervous system disorders (Grade 2, Overall BID (N = 15)): 2 (13.3) n (%)
TEAE: Oedema peripheral (Grade 2, Overall BID (N = 15)): 1 (6.7) n (%)
TEAE: Psychiatric disorders (Grade 2, Overall BID (N = 15)): 2 (13.3) n (%)
TEAE: Pyrexia (Grade 2, Overall BID (N = 15)): 0 n (%)
TEAE: Renal and urinary disorders (Grade 2, Overall BID (N = 15)): 1 (6.7) n (%)
TEAE: Respiratory, thoracic, and mediastinal disorders (Grade 2, Overall BID (N = 15)): 6 (40.0) n (%)
TEAE: Skin and subcutaneous tissue disorders (Grade 2, Overall BID (N = 15)): 0 n (%)
TEAE: Urinary tract infection (Grade 2, Overall BID (N = 15)): 3 (20.0) n (%)
TEAE: Vascular disorders (Grade 2, Overall BID (N = 15)): 1 (6.7) n (%)
TEAE: Vomiting (Grade 2, Overall BID (N = 15)): 1 (6.7) n (%)
Any treatment-emergent adverse event (TEAE) (Grade 2, Overall QD (N = 20)): 12 (60.0) n (%)
TEAE: Abdominal distension (Grade 2, Overall QD (N = 20)): 1 (5.0) n (%)
TEAE: Abdominal pain (Grade 2, Overall QD (N = 20)): 1 (5.0) n (%)
TEAE: Back pain (Grade 2, Overall QD (N = 20)): 1 (5.0) n (%)
TEAE: Blood and lymphatic system disorders (Grade 2, Overall QD (N = 20)): 1 (5.0) n (%)
TEAE: Constipation (Grade 2, Overall QD (N = 20)): 2 (10.0) n (%)
TEAE: Cough (Grade 2, Overall QD (N = 20)): 0 n (%)
TEAE: Decreased appetite (Grade 2, Overall QD (N = 20)): 1 (5.0) n (%)
TEAE: Diarrhoea (Grade 2, Overall QD (N = 20)): 3 (15.0) n (%)
TEAE: Dysgeusia (Grade 2, Overall QD (N = 20)): 1 (5.0) n (%)
TEAE: Dyspnoea (Grade 2, Overall QD (N = 20)): 4 (20.0) n (%)
TEAE: Fatigue (Grade 2, Overall QD (N = 20)): 6 (30.0) n (%)
TEAE: Gastrointestinal disorders (Grade 2, Overall QD (N = 20)): 6 (30.0) n (%)
TEAE: General disorders and administration site conditions (Grade 2, Overall QD (N = 20)): 8 (40.0) n (%)
TEAE: Haematuria (Grade 2, Overall QD (N = 20)): 0 n (%)
TEAE: Infections and infestations (Grade 2, Overall QD (N = 20)): 3 (15.0) n (%)
TEAE: Investigations (Grade 2, Overall QD (N = 20)): 0 n (%)
TEAE: Metabolism and nutrition disorders (Grade 2, Overall QD (N = 20)): 2 (10.0) n (%)
TEAE: Musculoskeletal and connective tissue disorders (Grade 2, Overall QD (N = 20)): 2 (10.0) n (%)
TEAE: Nausea (Grade 2, Overall QD (N = 20)): 4 (20.0) n (%)
TEAE: Nervous system disorders (Grade 2, Overall QD (N = 20)): 2 (10.0) n (%)
TEAE: Oedema peripheral (Grade 2, Overall QD (N = 20)): 0 n (%)
TEAE: Psychiatric disorders (Grade 2, Overall QD (N = 20)): 0 n (%)
TEAE: Pyrexia (Grade 2, Overall QD (N = 20)): 1 (5.0) n (%)
TEAE: Renal and urinary disorders (Grade 2, Overall QD (N = 20)): 1 (5.0) n (%)
TEAE: Respiratory, thoracic, and mediastinal disorders (Grade 2, Overall QD (N = 20)): 6 (30.0) n (%)
TEAE: Skin and subcutaneous tissue disorders (Grade 2, Overall QD (N = 20)): 3 (15.0) n (%)
TEAE: Urinary tract infection (Grade 2, Overall QD (N = 20)): 1 (5.0) n (%)
TEAE: Vascular disorders (Grade 2, Overall QD (N = 20)): 2 (10.0) n (%)
TEAE: Vomiting (Grade 2, Overall QD (N = 20)): 2 (10.0) n (%)
Any treatment-emergent adverse event (TEAE) [2]: 19 (54.3) n (%)
TEAE: Abdominal distension [2]: 2 (5.7) n (%)
TEAE: Abdominal pain [2]: 1 (2.9) n (%)
TEAE: Back pain [2]: 3 (8.6) n (%)
TEAE: Blood and lymphatic system disorders [2]: 1 (2.9) n (%)
TEAE: Constipation [2]: 4 (11.4) n (%)
TEAE: Cough [2]: 1 (2.9) n (%)
TEAE: Decreased appetite [2]: 5 (14.3) n (%)
TEAE: Diarrhoea [2]: 5 (14.3) n (%)
TEAE: Dysgeusia [2]: 3 (8.6) n (%)
TEAE: Dyspnoea [2]: 9 (25.7) n (%)
TEAE: Fatigue [2]: 11 (31.4) n (%)
TEAE: Gastrointestinal disorders [2]: 11 (31.4) n (%)
TEAE: General disorders and administration site conditions [2]: 14 (40.0) n (%)
TEAE: Haematuria [2]: 1 (2.9) n (%)
TEAE: Infections and infestations [2]: 8 (22.9) n (%)
TEAE: Investigations [2]: 1 (2.9) n (%)
TEAE: Metabolism and nutrition disorders [2]: 7 (20.0) n (%)
TEAE: Musculoskeletal and connective tissue disorders [2]: 5 (14.3) n (%)
TEAE: Nausea [2]: 8 (22.9) n (%)
TEAE: Nervous system disorders [2]: 4 (11.4) n (%)
TEAE: Oedema peripheral [2]: 1 (2.9) n (%)
TEAE: Psychiatric disorders [2]: 2 (5.7) n (%)
TEAE: Pyrexia [2]: 1 (2.9) n (%)
TEAE: Renal and urinary disorders [2]: 2 (5.7) n (%)
TEAE: Respiratory, thoracic, and mediastinal disorders [2]: 12 (34.3) n (%)
TEAE: Skin and subcutaneous tissue disorders [2]: 3 (8.6) n (%)
TEAE: Urinary tract infection [2]: 4 (11.4) n (%)
TEAE: Vascular disorders [2]: 3 (8.6) n (%)
TEAE: Vomiting [2]: 3 (8.6) n (%)
Any treatment-emergent adverse event (TEAE) (Grade 3, Overall BID (N = 15)): 6 (40.0) n (%)
TEAE: Blood and lymphatic system disorders (Grade 3, Overall BID (N = 15)): 1 (6.7) n (%)
TEAE: Diarrhoea (Grade 3, Overall BID (N = 15)): 1 (6.7) n (%)
TEAE: Dyspnoea (Grade 3, Overall BID (N = 15)): 0 n (%)
TEAE: Fatigue (Grade 3, Overall BID (N = 15)): 1 (6.7) n (%)
TEAE: Gastrointestinal disorders (Grade 3, Overall BID (N = 15)): 1 (6.7) n (%)
TEAE: General disorders and administration site conditions (Grade 3, Overall BID (N = 15)): 1 (6.7) n (%)
TEAE: Infections and infestations (Grade 3, Overall BID (N = 15)): 1 (6.7) n (%)
